We go through nine compounds from US11319299B2, “Substituted carboxamides as inhibitors of WDR5 protein-protein binding” (PROPELLON THERAPEUTICS INC., priority 2016, dated 2022).

In the assay the target is WDR5 (Homo sapiens (Human), UniProt P61964). In words: Surface Plasmon Resonance (SPR) assay, KD and residence time. It is filed as binding. Particulars: surface plasmon resonance (SPR); read-out: WDR5 binding affinity (KD).

Regarding `C[C@@H]1CN(c2cc(F)c(-c3nc(CN4CCOCC4)cs3)cc2NC(=O)c2cn(C)c(=O)cc2C(F)F)C[C@H](C)N1C` [Example 741, 4-(difluoromethyl)-N-[4-fluoro-5-[4-(morpholin-4-ylmethyl)-1,3-thiazol-2-yl]-2-[(3R,5S)-3,4,5-trimethylpiperazin-1-yl]phenyl]-1-methyl-6-oxopyridine-3-carboxamide], the Kd was found to be 0.00675 µM.
The value for `C[C@@H]1CN(c2nccc(-c3cc(NC(=O)c4cn(C)c(=O)cc4C(F)(F)F)c(N4C[C@@H](C)N(C)[C@@H](C)C4)cc3F)n2)C[C@H](C)O1` [Example 743, N-[4-fluoro-5-[2-[(2R,6S)-2,6-dimethylmorpholin-4-yl]pyrimidin-4-yl]-2-[(3R,5S)-3,4,5-trimethylpiperazin-1-yl]phenyl]-1-methyl-6-oxo-4-(trifluoromethyl)pyridine-3-carboxamide] was 0.00522 µM.
With `C[C@@H]1CN(c2nccc(-c3cc(NC(=O)c4c[nH]c(=O)cc4C(F)F)c(N4C[C@@H](C)N(C)[C@@H](C)C4)cc3F)n2)C[C@H](C)O1` [Example 744, 4-(difluoromethyl)-N-[4-fluoro-5-[2-[(2R,6S)-2,6-dimethylmorpholin-4-yl]pyrimidin-4-yl]-2-[(3S,5R)-3,4,5-trimethylpiperazin-1-yl]phenyl]-6-oxo-1H-pyridine-3-carboxamide], the Kd worked out at 0.00276 µM.
The value for `C[C@@H]1CN(c2nccc(-c3cc(NC(=O)c4cn(C)c(=O)cc4C(F)F)c(N4C[C@@H](C)N(C)[C@@H](C)C4)cc3F)n2)C[C@H](C)O1` [Example 745, 4-(difluoromethyl)-N-[4-fluoro-5-[2-[(2R,6S)-2,6-dimethylmorpholin-4-yl]pyrimidin-4-yl]-2-[(3R,5S)-3,4,5-trimethylpiperazin-1-yl]phenyl]-1-methyl-6-oxopyridine-3-carboxamide] was 0.0056 µM.
As for `C[C@@H]1CN(c2cc(F)c(-c3ccnc(N4CCOCC4)n3)cc2NC(=O)c2cn(C)c(=O)cc2C(F)F)C[C@H](C)N1C` [Example 746, 4-(difluoromethyl)-N-[4-fluoro-5-(2-morpholin-4-ylpyrimidin-4-yl)-2-[(3R,5S)-3,4,5-trimethylpiperazin-1-yl]phenyl]-1-methyl-6-oxopyridine-3-carboxamide], the Kd turned out to be 13600 µM.
Regarding `C[C@@H]1CN(c2cc(F)c(-c3ccc(C(=O)NC4CCCCC4(C)C)c(F)c3)cc2NC(=O)c2c[nH]c(=O)cc2C(F)(F)F)C[C@H](C)N1C` (stereo partly drawn) [Example 747, N-[5-[4-[(2,2-dimethylcyclohexyl)carbamoyl]-3-fluorophenyl]-4-fluoro-2-[(3R,5S)-3,4,5-trimethylpiperazin-1-yl]phenyl]-6-oxo-4-(trifluoromethyl)-1H-pyridine-3-carboxamide], the Kd worked out at 0.00485 µM.
The value for `C[C@@H]1CN(c2cc(F)c(-c3ncc(CN4CCOCC4)s3)cc2NC(=O)c2cn(C)c(=O)cc2C(F)F)C[C@H](C)N1C` [Example 748, 4-(difluoromethyl)-N-[4-fluoro-5-[5-(morpholin-4-ylmethyl)-1,3-thiazol-2-yl]-2-[(3R,5S)-3,4,5-trimethylpiperazin-1-yl]phenyl]-1-methyl-6-oxopyridine-3-carboxamide] was 0.0518 µM.
The value for `C[C@@H]1CN(c2cc(F)c(-c3csc(CN4CCOCC4)n3)cc2NC(=O)c2cn(C)c(=O)cc2C(F)F)C[C@H](C)N1C` [Example 749, 4-(difluoromethyl)-N-[4-fluoro-5-[2-(morpholin-4-ylmethyl)-1,3-thiazol-4-yl]-2-[(3R,5S)-3,4,5-trimethylpiperazin-1-yl]phenyl]-1-methyl-6-oxopyridine-3-carboxamide] was 0.0106 µM; that for `C[C@@H]1CN(c2cc(F)c(-c3nc(CN4CCOCC4)cs3)cc2NC(=O)c2c[nH]c(=O)cc2C(F)(F)F)C[C@H](C)N1C` [Example 750, N-[4-fluoro-5-[4-(morpholin-4-ylmethyl)-1,3-thiazol-2-yl]-2-[(3R,5S)-3,4,5-trimethylpiperazin-1-yl]phenyl]-6-oxo-4-(trifluoromethyl)-1H-pyridine-3-carboxamide] was 0.00171 µM.
